We go through 1 compound from US20230263817A1, “HIGH DOSE NICOTINAMIDE ADENINE DINUCLEOTIDE (NAD) PRECURSOR REGIMENS FOR REDUCTION OF INFLAMMATION IN HUMAN PATIENTS WITH PREEXISTING INFLAMMATION” (University of Washington, priority 2021, published 2023).

The structures appear in SMILES notation.

Test [1] is described as follows: Randomized trial of NR in HFrEF: exploratory endpoints (6MWD, MLHFQ, echocardiography). In kind it is in vivo, human. To be noted: Week 12 vs baseline; study not powered. Here is the method: Peripheral Blood Mononuclear Cell (PBMC) Mitochondrial Function. PBMCs were isolated from freshly-collected whole blood by centrifugation in Sepmate™-50 PBMC isolation tubes (STEMCELL Technologies, Vancouver, BC, Canada; Cat. 85450). Isolated PBMCs were resuspended in Seahorse XF® medium (Agilent, Cat. 102353-100) and then plated (10^6 cells/well) onto Seahorse® (Agilent) 24-well plates. PBMC mitochondrial respiratory function was assessed by measuring the oxygen consumption rate (OCR) at baseline and maximal stimulated conditions as described in Zhou B, et al. (J Clin Invest. 2020, 130:6054-6063 (Experimental Example 1)). Exploratory Endpoints. The following endpoints were considered exploratory, as the Study was underpowered to detect differences.
Six minute walk distance (6MWD). Any potential “training” effect (Laboratories ATSCoPSfCPF. ATS statement: guidelines for the six-minute walk test. Am J Respir Crit Care Med. 2002, 166:111-7) for 6MWD results was mitigated by performing a “training” test at the Screening Visit, while the second test, performed at the Randomization Visit was considered the Baseline test.
Echocardiography. Serial echocardiograms were performed using a standardized data collection protocol determined using the TOMTEC Arena Image-Com (TOMTEC Imaging Systems, Unterschleissheim, Germany). All echocardiograms were interpreted by a single observer, blinded to participant clinical data, randomized treatment assignment and echocardiogram temporal sequence. For evaluation of left ventricular systolic function by 2-dimensional (2-D), transthoracic echocardiography, 28 study pairs (NR=18, placebo=10) had evaluable data. For evaluation of left ventricular diastolic function by […] (E/e′), 24 study pairs (NR=17, placebo=7) had evaluable data.
Minnesota Living with Heart Failure Questionnaire (MLHFQ). The MLHFQ was administered to Study participants at the Screening and Randomization visits, as well as at Study visits at Weeks 2, 3, 4, 8 and 12.

For test [2], the system named is PBMC of Stage D HF subjects. Put plainly: PBMC basal and maximal OCR of Stage D HF patients pre- and post-oral NR. The following applies: oral NR 5-9 days, post vs pre. It counts as in vivo, human. On the procedure: For experiments associated with the oral NR administration (FIGS. 12C-12F), 5 hospitalized Stage D HF patients undergoing advanced heart failure therapy evaluations were put on escalating doses of NR (250 mg twice a day for Day 1, 500 mg twice a day for Day 2, and 1000 mg twice a day from Day 3 on) for 5-9 days. Fasting blood samples were obtained for PBMC isolation at baseline and post-NR administration. Subject 5 was withdrawn due to a change in clinical course deemed to be independent from NR administration. PBMC and Monocyte isolation. 30-60 ml of fasting blood was collected into EDTA-containing Vacutainers (BD Mfr #364606). Blood then was diluted (1:1) with RPMI medium (Corning; Cat #17-105-CV) and applied to Histopaque gradient medium (Sigma-Aldrich; Cat #10771) using SepMate-50 (STEMCELL Technologies), and centrifuged at 1200 g for 10 minutes. Top layer contained the enriched peripheral blood mononuclear cells (PBMCs) which were collected and followed by centrifugation at 300 g for 10 minutes. The pellet was resuspended with ACK lysis buffer (Gibco; Cat. A1049201) and incubated at room temperature for 5 minutes to remove residual red blood cells. […] When available, the remaining cells were used for cytokine mRNA quantitative PCR and in vitro assays. […] Oxygen consumption rate (OCR) of freshly isolated PBMCs was assessed using a Seahorse XFe24 analyzer (Agilent Technologies). […]

As to `NC(=O)c1ccc[n+]([C@@H]2O[C@H](CO)[C@@H](O)[C@H]2O)c1` [NR, nicotinamide riboside], in test [1], the “functional capacity, 6-minute walk test distance, NR vs placebo” value is “No on-trial differences between groups”; the “left ventricular diastolic function (E/e′), NR vs placebo” value is on record as “No on-trial differences between groups”; the “left ventricular systolic function, 2D-LVEF, NR vs placebo” value was “No on-trial differences between groups”; the “quality of life, MLHFQ score, NR vs placebo” value is listed as “No on-trial differences between groups”. Moreover, in test [2], the “PBMCs basal OCR” value is recorded as “consistent enhancement” and the “PBMCs maximal OCR” value is given as “consistent enhancement”.
